Values quoted from earlier work as cited in US20050208119A1, “Encapsulated oral chelating preparations” (priority 2004, published 2005).

Settings: oral administration

Q: For `O=C(O)CN(CCN(CC(=O)O)CC(=O)O)CC(=O)O` [EDTA, ethylene-diaminetetraacetic acid], which “fraction absorbed when administered by mouth” value (general consensus) is on record?
A: about five

Q: What about the “unabsorbed fraction that remains within the digestive tract” value (reported) of the same molecule?
A: 95%
